In US20160166688A9, “COMBINATION THERAPY OF AN AFUCOSYLATED CD20 ANTIBODY WITH BENDAMUSTINE” (Roche Glycart AG, priority 2009, published 2016):

Tested on: human Z138 mantle cell lymphoma cell line
Assay: Tumor growth inhibition study in vivo, Z138 xenograft
Set-up: species or system SCID beige mice
Settings: for TGI (%): tumor growth inhibition vs. control group on day 33 after tumor cell inoculation, antibodies 1 mg/kg once weekly; for Antitumor activity / tumor growth compared to control group (words): 3 mg/kg i.p., study days 19-22, end of study day 33
[1] = i.p., bendamustine 3 mg/kg days 19-22

Molecule | TGI (%) [1] | Antitumor activity / tumor growth compared to control group (words) | Antitumor activity / tumor growth compared to control group (words) (listed as bendamustine) | Parametric TCR based on sAUC (vs. vehicle group 1, study end day 33, i.p., antibodies 1 mg/kg once weekly (days 19, 26), bendamustine 3 mg/kg days 19-22)
B-HH6-B-KV1 GE: Afucosylated glyco-engineered humanized B-Ly1 type II anti-CD20 IgG1 antibody; VH SEQ ID NO:7 (B-HH6), VL SEQ ID No. 20 (B-KV1) | 47% |  |  | 
Cn1c(CCCC(=O)O)nc2cc(N(CCCl)CCCl)ccc21 [Bendamustine, 4-[5-[Bis(2-chloroethyl)amino]-1-methylbenzimidazol-2-yl]buta-noic acid] | 0% | comparable tumor growth as the control group | did not show any antitumor activity | 0.9
